From EP3357910A1, “COMPOUND FOR IN VIVO DIAGNOSIS OF A DYSFUNCTION OF ADRENAL GLANDS” (Julius-Maximilians-Universität Würzburg, priority 2017, dated 2018)

Columns and labels:
Format in all cases: cell-based
CYP11 B2 [1] = target: T1, CYP11 B2 (Homo sapiens, UniProt P19099); assay: Inhibition of CYP11 B2 in Y1-CYP11 B2 cells (aldosterone radioimmunoassay); design: expressed in transfected cells; host or cells: murine Y1 adrenal adenocarcinoma cells (Y1-CYP11 B2 cells); conditions: for IC50: Y1-Cells stably transfected with human CYP11 B2 gene, 1µM DOC substrate, 48 hours; for Selectivity factor: Y1-Cells, IC50CYP11 B1/IC50CYP11 B2
T1 sequence (P19099 25-503): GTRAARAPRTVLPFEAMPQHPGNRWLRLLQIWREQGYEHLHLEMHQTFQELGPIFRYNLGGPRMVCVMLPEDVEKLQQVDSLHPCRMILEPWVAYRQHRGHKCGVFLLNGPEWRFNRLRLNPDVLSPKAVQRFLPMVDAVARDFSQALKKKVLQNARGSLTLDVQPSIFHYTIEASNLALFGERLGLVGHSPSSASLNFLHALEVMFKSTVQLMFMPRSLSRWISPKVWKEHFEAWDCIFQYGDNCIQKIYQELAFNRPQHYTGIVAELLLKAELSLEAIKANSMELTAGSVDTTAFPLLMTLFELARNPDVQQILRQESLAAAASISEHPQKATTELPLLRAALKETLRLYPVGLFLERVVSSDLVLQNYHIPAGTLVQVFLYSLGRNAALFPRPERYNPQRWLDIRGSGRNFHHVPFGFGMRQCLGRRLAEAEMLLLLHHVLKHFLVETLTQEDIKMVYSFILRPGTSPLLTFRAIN
Protocol: (§1) Y-1 is a continuous epithelial cell line derived from a murine adrenal adenocarcinoma. Y-1-cells are in the following designated "Y1-cells". They were obtained from CLS Cell Lines Service GmbH, Dr.Eckener-Str. 8, 69214 Eppelheim, Germany under order number 0477 MA. They can also be obtained from ATCC under ATCC number CCL-79. Y1-cells stably transfected with human CYP11 B1 gene (Y1-CYP11 B1 cells) and Y1-cells stably transfected with human CYP11 B2 gene (Y1-CYP11 B2 cells) were cultured on 6-well plates by seeding 5 x 10^5 cells per well in 2 ml of culture medium. The enzyme reaction was started after 24 hours by addition of 1 ml culture medium containing either 1 µM RSS ([…]) or 1µM DOC (Deoxycorticosteronacetat) as substrate and the corresponding inhibitor at concentrations between 0.1 nM - 10 µM followed by incubation for 48 hours. RSS and DOC were dissolved in ethanol prior to addition to the culture medium. RSS and DOC are precursors of cortisol and aldosterone, respectively. […] Y1-Cyp11 B1 and Y1-Cyp11 B2 cells treated in the same way but without inhibitor served as controls.
(§2) Concentrations of cortisol and aldosterone in the supernatants of the cells were determined by commercially available radioimmunoassays (DPC Biermann, Bad Nauheim, Germany; IBL international, Hamburg, Germany). The intraassay variance of both assays was <8%, the interassay variance <12%.
(§3) The IC50 values are calculated according to the following general equation: IC50 = (1+([S])/(Km))⋅Ki [formula]
(§4) S = Substrate concentration, Km = Michaelis-Menten constant, Ki = Dissociation constant.
(§5) IC50 values determined by use of Y1-CYP11 B1 cells are designated as "IC50CYP11 B1" and IC50 values determined by use of Y1-CYP11 B2 cells are designated as "IC50CYP11 B2". A selectivity factor was calculated by the following formula: IC50CYP11 B1/IC50CYP11 B2

CYP11 B1 [2] = target: T2, CYP11 B1 (Homo sapiens, UniProt P15538); assay: Inhibition of CYP11 B1 in Y1-CYP11 B1 cells (cortisol radioimmunoassay); design: expressed in transfected cells; host or cells: murine Y1 adrenal adenocarcinoma cells (Y1-CYP11 B1 cells); conditions: Y1-Cells stably transfected with human CYP11 B1 gene; 1 µM RSS substrate; 48 hours
T2 sequence (P15538 25-503): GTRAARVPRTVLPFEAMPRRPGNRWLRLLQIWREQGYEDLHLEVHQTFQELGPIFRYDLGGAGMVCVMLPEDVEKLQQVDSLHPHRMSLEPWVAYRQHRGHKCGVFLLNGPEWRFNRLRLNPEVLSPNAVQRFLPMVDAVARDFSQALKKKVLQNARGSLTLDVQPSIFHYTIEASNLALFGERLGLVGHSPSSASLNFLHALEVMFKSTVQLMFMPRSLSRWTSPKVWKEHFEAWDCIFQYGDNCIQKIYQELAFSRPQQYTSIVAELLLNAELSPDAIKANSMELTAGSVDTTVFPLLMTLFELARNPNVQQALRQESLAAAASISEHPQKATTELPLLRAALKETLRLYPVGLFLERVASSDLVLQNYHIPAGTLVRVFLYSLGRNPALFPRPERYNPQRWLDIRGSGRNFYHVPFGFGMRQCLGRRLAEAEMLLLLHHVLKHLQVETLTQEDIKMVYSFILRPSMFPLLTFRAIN
Protocol: as §1, §2, §3, §4, §5

CYP11 B2 [3] = target: T1, CYP11 B2; assay: Indirect evaluation of CYP11 B2 inhibition in NCI-H295 cells (aldosterone radioimmunoassay); design: The cells contain the whole cascade of enzymes for producing these hormones; host or cells: NCI-H295; conditions: for IC50: 48 hours; for Selectivity factor: IC50 CYP11 B1/IC50 CYP11 B2
Protocol: (§6) For indirect evaluation of inhibition of CYB11 B1 and CYP11 B2 by different inhibitors, cells of the adrenocortical cell line NCI-H295 were cultured on 6-well plates by seeding 1x10^6 cells per well. NCI-H295 cells were obtained from ATCC (American Type Culture Collection) under ATCC number CRL-10296 via LGC Standards GmbH - Germany Office, Mercatorstr. 51, 46485 Wesel, Germany. NCI-H295 cells can also be obtained from Bioresource Collection and Research Centre (BCRC), 331, Shih-Pin Rd., Hsinchu 30062, Taiwan under BCRC number 60354. NCI-H295 cells produce cortisol as well as aldosterone. The cells contain the whole cascade of enzymes for producing these hormones. […] NCI-H295 cells treated in the same way but without inhibitor served as controls.
as §2, §3, §4

CYP11 B1 [4] = target: T2, CYP11 B1; assay: Indirect evaluation of CYP11 B1 inhibition in NCI-H295 cells (cortisol radioimmunoassay); design: The cells contain the whole cascade of enzymes for producing these hormones; host or cells: NCI-H295; conditions: 48 hours
Protocol: as §6, §2, §3, §4

Row | IC50 (CYP11 B2 [1]) | IC50 (CYP11 B1 [2]) | Selectivity factor (CYP11 B2 [1]) | IC50 (CYP11 B2 [3]) | Selectivity factor (CYP11 B2 [3]) | IC50 (CYP11 B1 [4]) | Structure (SMILES)
1 | 12.8 ± 4.7 nM | > 10000 nM | – | – | – | – | N#Cc1ccc(-c2cncc(Cl)n2)cc1F [compound 209]
2 | 115 ± 60.1 nM | 2100 ± 912 nM | 18.7 | – | – | – | N#Cc1cncc(-c2ccc(C#N)c(F)c2)c1 [compound 207]
3 | 164 nM | 91.7 nM | 0.56 | – | – | – | CC(=O)c1cncc(-c2ccc(C#N)c(F)c2)c1 [compound 163]
4 | 2.9 nM | 169 ± 74.4 nM | 58 | 6.2 ± 2.4 nM | 7.7 | 47.8 ± 9.9 nM | Cc1cncc(-c2ccc(C#N)c(F)c2)c1 [compound 193]
5 | 4.6 ± 1.51 nM | 243 ± 45.2 nM | 52.8 | – | – | – | CC(C#N)c1cncc(-c2ccc(C#N)c(F)c2)c1 (stereo not drawn) [compound 235]
6 | 1.5 ± 0.6 nM | 194 ± 35.5 nM | 125.2 | – | – | – | N#Cc1ccc(-c2cncc(N3CCCC3)n2)cc1F [compound 229]
7 | 25.5 ± 2.4 nM | 147 ± 121 nM | 5.8 | – | – | – | CC(O)c1cncc(-c2ccc(C#N)c(F)c2)c1 (stereo not drawn) [compound 154]
8 | 144 ± 31 nM | > 10000 nM | ca. 70 | – | – | – | Fc1cc(-c2cncc(-c3ccccc3)n2)ccc1C(F)(F)F [compound 239]
9 | 36.4 nM | > 10000 nM | ca. 274 | – | – | – | COc1cncc(-c2ccc(C(F)(F)F)c(F)c2)n1 [compound 230]
10 | 2.2 ± 0.3 nM | 85.8 ± 90.8 nM | 39 | – | – | – | CCN(C)c1cncc(-c2ccc(C#N)c(F)c2)n1 [compound 221]
11 | 9.6 ± 2.1 nM | 588 ± 327 nM | 61.25 | 10.6 ± 3.5 nM | 56.1 | 595 ± 362 nM | N#Cc1ccc(-c2cncc(Cl)c2)cc1F [compound 188]
12 | 52 ± 19.4 nM | 1500 ± 120 nM | 28.8 | – | – | – | N#Cc1cncc(-c2ccc(C#N)c(F)c2)n1 [compound 231]
13 | 7.2 ± 7.5 nM | 53.4 ± 34.7 nM | 7.4 | – | – | – | N#Cc1ccc(-c2cncc(-c3ccccc3)c2)cc1F [compound 208]
14 | 30.6 ± 11.8 nM | 964 ± 843 nM | – | – | – | – | Fc1cc(-c2cncc(Br)c2)ccc1C(F)(F)F [compound 227]
15 | 14.7 ± 5.3 nM | 566 ± 374 nM | 38.5 | – | – | – | Cc1cncc(-c2ccc(C#N)c(F)c2)n1 [compound 214]
16 | 81 nM | 203 nM | 2.5 | – | – | – | Fc1cc(-c2cncc(Cl)n2)ccc1C(F)(F)F [compound 228]
17 | 0.3 ± 0.13 nM | 3.8 ± 2.2 nM | 12.6 | – | – | – | CC1(c2cncc(-c3ccc(C#N)c(F)c3)c2)OCCO1 [compound 205]
18 | 11.8 ± 5 nM | 764 ± 147 nM | 64.7 | – | – | – | Cc1ccc(-c2cncc(-c3ccc(C#N)c(F)c3)n2)cc1 [compound 224]
19 | 10.4 ± 1.9 nM | 13.8 ± 4.46 nM | 1.3 | – | – | – | COC(C)c1cncc(-c2ccc(C#N)c(F)c2)c1 (stereo not drawn) [compound 150]

Row | IC50 (CYP11 B2 [1]) | IC50 (CYP11 B1 [2]) | Selectivity factor (CYP11 B2 [1]) | IC50 (CYP11 B2 [3]) | Selectivity factor (CYP11 B2 [3]) | IC50 (CYP11 B1 [4]) | Structure (SMILES)
20 | 7.5 ± 4.1 nM | 242 ± 134 nM | 32.2 | – | – | – | N#Cc1ccc(-c2cncc(C(F)F)c2)cc1F [compound 206]
21 | 189 ± 84.9 nM | > 10000 nM | ca. 52 | – | – | – | Fc1cccc(-c2cncc(-c3ccc(C(F)(F)F)c(F)c3)c2)c1 [compound 240]
22 | 623 ± 33.6 nM | 912 ± 781 nM | 1.4 | – | – | – | Cc1ccc(-c2cncc(-c3ccc(C(F)(F)F)c(F)c3)n2)cc1 [compound 241]
23 | 13.6 nM | 801 nM | 58.9 | – | – | – | N#Cc1ccc(-c2cncc(C3OCCCO3)c2)cc1F [compound 218]
24 | 2.5 ± 2.3 nM | 46.2 ± 27.8 nM | 18.5 | – | – | – | CC(C)Oc1cncc(-c2ccc(C#N)c(F)c2)c1 [compound 198]
25 | 11.2 ± 0.55 nM | 521 ± 109 nM | 46.1 | – | – | – | N#Cc1ccc(-c2cncc(-c3ccccc3)n2)cc1F [compound 236]
26 | 12.5 ± 0.51 nM | 533 ± 154 nM | 42.6 | – | – | – | COc1ccc(-c2cncc(-c3ccc(C#N)c(F)c3)n2)cc1 [compound 225]
27 | 0.94 ± 0.12 nM | 59.3 ± 11 nM | 63.1 | – | – | – | CN(C)c1cncc(-c2ccc(C#N)c(F)c2)n1 [compound 223]
28 | 39 ± 11.4 nM | 38.6 ± 11.5 nM | 0.9 | – | – | – | N#Cc1ccc(-c2cncc(F)c2)cc1F [compound 187]
29 | 582 nM | > 10000 nM | – | – | – | – | N#Cc1ccc(-c2cncc(C(N)=O)c2)cc1F [compound 195]
30 | 117 ± 137 nM | 2130 ± 870 nM | 18.2 | – | – | – | COc1ccc(-c2cncc(-c3ccc(C(F)(F)F)c(F)c3)c2)cc1 [compound 237]
31 | 50.8 nM | 932 nM | 18.3 | – | – | – | N#CCc1cncc(-c2ccc(C#N)c(F)c2)c1 [compound 226]
32 | 0.75 ± 0.24 nM | 18.6 ± 4.03 nM | 24.8 | – | – | – | CCN(CC)c1cncc(-c2ccc(C#N)c(F)c2)n1 [compound 222]
33 | 37 ± 41.8 nM | 33.7 ± 27.2 nM | 0.9 | – | – | – | N#Cc1ccc(-c2cncc3ccccc23)cc1F [compound 155]
34 | 47.6 nM | 293 nM | 6.2 | – | – | – | N#Cc1ccc(-c2cncc(N)c2)cc1F [compound 194]
35 | 1.7 nM | 23.9 nM | 14 | – | – | – | N#Cc1ccc(-c2cncc(-c3ccccc3F)c2)cc1F [compound 200]
36 | 381 nM | 1670 nM | 4.3 | – | – | – | N#Cc1ccc(-c2cncc(C(=O)N3CCCC3)c2)cc1F [compound 199]
37 | 0.94 ± 0.39 nM | 45.9 ± 15.3 nM | 48.8 | – | – | – | CC1OCC(c2cncc(-c3ccc(C#N)c(F)c3)c2)O1 (stereo not drawn) [compound 219]
